Assay results: patent US6420455B1, “Antimicrobial composition containing photosensitizers articles, and methods of use” (3M Innovative Properties Company, priority 1999, dated 2002)

What was measured:
Test in all cases: Zone of inhibition of dye-dipped filter disks on agar lawn
Staph. Aureus = type: cell-based, Staphylococcus aureus; details: for Zone of Inhibition in Dark: 10 mg/ml dye in water on 6-mm disk; for Zone of Inhibition in Room Light, 15 Minutes / Zone of Inhibition in Room Light Overnight / Zone of Inhibition in Room Light (after 30 min.): 10 mg/ml dye on 6-mm disk
Method: (§1) The procedure used for testing for antibacterial and antifungal activity is as follows.
Bacteria or fungi stock was plated onto Trypticase Soy Broth (TSB) agar (Becton Dickinson, Cockeysville, Md.) and incubated at 37° C. overnight, at which time several colonies were transferred to phosphate buffered saline (PBS) to give a solution with final concentration of 10^6 bacteria/ml or fungi/ml, as determined by comparison of turbidity with McFarland standards. Subsequently, a lawn of the bacterium or fungus was prepared by triple swabbing a Trypticase Soy broth agar plate (prepared using TSB and agar according to label instructions). Then, 6-mm diameter paper filter disks were dipped into one of the dyed solutions, blotted to remove the excess solution, and placed on the agar plates. […]
(§2) The plates were removed from the incubator and inspected for clear areas surrounding treated 6-mm filter disks that are indicative of prevention of growth of bacteria. The diameter of each clear area was measured and recorded and compared with controls.

C. albicans = type: cell-based, Candida albicans; details: for Zone of Inhibition in Dark: 10 mg/ml dye on 6-mm disk
Method: as §1
(§3) Bacteria or fungi stock was plated onto Trypticase Soy Broth (TSB) agar (Becton Dickinson, Cockeysville, Md.) and incubated at 37° C. overnight, at which time several colonies were transferred to phosphate buffered saline (PBS) to give a solution with final concentration of 10^6 bacteria/ml or fungi/ml, as determined by comparison of turbidity with McFarland standards. Subsequently, a lawn of the bacterium or fungus was prepared by triple swabbing a Trypticase Soy broth agar plate (prepared using TSB and agar according to label instructions). Then, 6-mm diameter paper filter disks were dipped into one of the dyed solutions, blotted to remove the excess solution, and placed on the agar plates. Each plate was then either kept in the dark (control) or irradiated for 15 minutes in room light or for overnight in room light before incubation at 37° C. for 24 hours.
as §2

P. aeruginosa = type: cell-based, Pseudomonas aeruginosa; details: for Zone of Inhibition in Dark: 10 mg/ml dye on 6-mm disk
Method: as §1, §3, §2

E. coli = type: cell-based, Escherichia coli; details: for Zone of Inhibition in Dark: 10 mg/ml dye on 6-mm disk
Method: as §1, §3, §2

E. faecium = type: cell-based, Enterococcus faecium; details: for Zone of Inhibition in Dark: 10 mg/ml dye on 6-mm disk
Method: as §1, §3, §2

Salmonella spp. = type: cell-based; details: for Zone of Inhibition in Dark: 10 mg/ml dye on 6-mm disk
Method: as §1, §3, §2

SMILES	Zone of Inhibition in Dark (Staph. Aureus)	Zone of Inhibition in Room Light, 15 Minutes (Staph. Aureus)	Zone of Inhibition in Room Light Overnight (Staph. Aureus)	Zone of Inhibition in Dark (C. albicans)	Zone of Inhibition in Room Light, 15 Minutes (C. albicans)	Zone of Inhibition in Room Light Overnight (C. albicans)	Zone of Inhibition in Dark (P. aeruginosa)	Zone of Inhibition in Room Light, 15 Minutes (P. aeruginosa)	Zone of Inhibition in Room Light Overnight (P. aeruginosa)	Zone of Inhibition in Dark (E. coli)	Zone of Inhibition in Room Light, 15 Minutes (E. coli)	Zone of Inhibition in Room Light Overnight (E. coli)	Zone of Inhibition in Dark (E. faecium)	Zone of Inhibition in Room Light, 15 Minutes (E. faecium)	Zone of Inhibition in Room Light Overnight (E. faecium)	Zone of Inhibition in Dark (Salmonella spp.)	Zone of Inhibition in Room Light, 15 Minutes (Salmonella spp.)	Zone of Inhibition in Room Light Overnight (Salmonella spp.)	Zone of Inhibition in Room Light (after 30 min.) (Staph. Aureus)
CN(C)c1ccc2nc3ccc(=[N+](C)C)cc-3sc2c1 [Methylene Blue]	18 mm	20 mm	28 mm	12 mm	12 mm	18 mm	0 mm	0 mm	0 mm	8 mm	0 mm	0 mm	16 mm	16 mm	19 mm	0 mm	0 mm	0 mm	
O=C([O-])c1c(Cl)c(Cl)c(Cl)c(Cl)c1-c1c2cc(I)c(=O)c(I)c-2oc2c(I)c([O-])c(I)cc12.[Na+].[Na+] [Rose Bengal disodium salt]	23 mm	21 mm	36 mm	0 mm	0 mm	13 mm	0 mm	0 mm	13 mm	0 mm	0 mm	11 mm	19 mm	19 mm	34 mm	7 mm	8 mm	19 mm	
Cc1cc2nc3ccc(N(C)C)cc3[s+]c2cc1N.[Cl-] [Toluidine Blue O]	20 mm																		19 mm
CN(C)c1ccc(C(=C2C=CC(=[N+](C)C)C=C2)c2ccc(N(C)C)cc2)cc1 [Crystal Violet]	30 mm																		30 mm
